Data as given in patent publication US11478461B2, “[1.1.1] bicyclo compounds as indoleamine 2,3-dioxygenase inhibitors” (Merck Sharp & Dohme Corp., priority 2018, dated 2022).

Molecular target: IDO1 (Homo sapiens, UniProt P14902)
Assay: IDO1 Cellular Assay in Hela Cells Stimulated with IFNγ
Type: cell-based
Settings: IFNγ 100 ng/mL, 300 uM L-tryptophan, about 48 hours, fluorescence readout, read-out: IDO1 HELA Cell Assay, IC50
Procedure: Biological Assays IDO1 Cellular Assay in Hela Cells Stimulated with IFNγ
Hela cells were cultured in complete Hela culture medium ([…], 10% heat-inactivated fetal bovine serum) and expanded to about 1×10^9 cells. The cells were then collected and frozen down at 10×10^6 cells/vial in 1 mL frozen medium (90% complete Hela culture medium, 10% DMSO).
Compounds to be tested were serially diluted in ten 3-fold steps in DMSO starting from 10 mM DMSO stocks in Echo low volume plate(s). Compound dilutions or DMSO alone were then dispensed from the dilution plate(s) into Greiner black 384-well assay plate(s) (catalog #781086, 50 nL/well) using an Echo 550 acoustic liquid handler (Labcyte).
Frozen Hela cells were thawed and transferred into Hela assay medium (99% complete Hela culture medium, 1% Pen/Strep) with 20 mL medium/vial of cells. The cells were spun down at 250 g in a table top centrifuge for 5 min and suspended in same volume of Hela assay medium. […] Sterile L-tryptophan were added to the cells with final concentration of 300 uM L-tryptophan. A small aliquot (2 mL/plate) of Hela cells were set aside and were not treated with IFNγ, to serve as the Max-E control. The rest of Hela cells were added with sterile IFNγ (Cat #285-IF, R & D systems) with a final concentration of 100 ng/mL.
Hela cells with and without IFNγ were dispensed to the respective wells of 384-well assay plates containing the compounds. The plates were incubated for about 48 hours at a 37° C., 5% CO2 incubator. Afterwards, 12 μL of 0.5 M methyl isonipecotate in dimethyl sulfoxide were added into each well and the plates were sealed and incubated at 37° C. without CO2 overnight. The plates were centrifuged for 1 min at 200×g. The resulting fluorescence was measured in a Spectramax plate reader (Molecular Devices) with a 400 nm excitation filter and a 510 nm emission filter.
Potencies were calculated by […] least squares fit to the four parameter logistic IC50 equation.

IDO1, sequence (P14902 whole entry): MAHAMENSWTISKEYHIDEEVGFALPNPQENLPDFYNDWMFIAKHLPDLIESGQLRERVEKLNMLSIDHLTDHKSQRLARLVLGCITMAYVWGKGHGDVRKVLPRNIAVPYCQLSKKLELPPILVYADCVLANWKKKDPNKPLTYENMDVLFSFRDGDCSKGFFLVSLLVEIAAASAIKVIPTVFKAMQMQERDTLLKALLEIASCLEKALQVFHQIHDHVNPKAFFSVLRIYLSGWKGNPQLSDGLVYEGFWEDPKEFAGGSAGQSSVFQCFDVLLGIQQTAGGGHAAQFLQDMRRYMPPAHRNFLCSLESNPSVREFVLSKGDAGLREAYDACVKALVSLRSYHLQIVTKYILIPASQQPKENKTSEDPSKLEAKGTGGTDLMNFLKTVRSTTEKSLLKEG

SMILES | IC50 [nM]
C[C@@H](C(=O)Nc1ccc(F)cc1)C12CC(NC(=O)c3cccc(C(F)(F)F)c3)(C1)C2 [Example 42, N-[3-[(1R)-2-(4-fluoroanilino)-1-methyl-2-oxo-ethyl]-1-bicyclo[1.1.1]pentanyl]-3-(trifluoromethyl)benzamide] | 5.02
CC(C(=O)Nc1ccc(F)cc1)C12CC(NC(=O)c3cnnc4ccccc34)(C1)C2 (stereo not drawn) [Example 135, N-[3-[2-(4-fluoroanilino)-1-methyl-2-oxo-ethyl]-1-bicyclo[1.1.1]pentanyl]cinnoline-4-carboxamide] | 276
CC(C(=O)Nc1ccc(F)cc1)C12CC(NC(=O)c3cc(C4CC4)on3)(C1)C2 (stereo not drawn) [Example 120, 5-cyclopropyl-N-[3-[2-(4-fluoroanilino)-1-methyl-2-oxo-ethyl]-1-bicyclo[1.1.1]pentanyl]isoxazole-3-carboxamide] | 125
C[C@@H](C(=O)Nc1ccc(F)cc1)C12CC(NC(=O)OC(C)(C)C)(C1)C2 (single isomer, unassigned) [Example 31] | > 10000
CC(NC(=O)c1ccc(F)cc1)C12CC(NC(=O)c3ccc(Cl)c(Cl)c3)(C1)C2 (single isomer, unassigned) [Example 22, 3,4-Dichloro-N-(3-(1-(4-fluorobenzamido)ethyl)bicyclo [1.1.1]pentan-1-yl) Benzamide] | 28.7
C[C@H](C(=O)Nc1ccc(F)cc1)C12CC(NC(=O)c3ccc4ccccc4c3)(C1)C2 [Example 148, (S)-N-(3-(1-((4-fluorophenyl)amino)-1-oxopropan-2-yl)bicyclo[1.1.1]pentan-1-yl)-2-naphthamide] | 19.7
CCc1cc(C(=O)NC23CC(C(C)C(=O)Nc4ccc(F)cc4)(C2)C3)n(C)n1 (stereo not drawn) [Example 141, 5-ethyl-N-[3-[2-(4-fluoroanilino)-1-methyl-2-oxo-ethyl]-1-bicyclo[1.1.1]pentanyl]-2-methyl-pyrazole-3-carboxamide] | 415
CC(C(=O)Nc1ccc(Cl)cc1)C12CC(NC(=O)OC3CC3)(C1)C2 (single isomer, unassigned) [Example 19, Cyclopropyl (3-(1-((4-chlorophenyl)amino)-1-oxopropan-2-yl)bicyclo [1.1.1]pentan-1-yl) carbamate] | 564
CC(C(=O)Nc1ccc(F)cc1)C12CC(NC(=O)c3cc(Cl)ccn3)(C1)C2 (stereo not drawn) [Example 112, 4-chloro-N-[3-[2-(4-fluoroanilino)-1-methyl-2-oxo-ethyl]-1-bicyclo[1.1.1]pentanyl]pyridin-1-ium-2-carboxamide] | 40.4
O=C(NC1(C23CC(NC(=O)c4cc(C(F)F)ccn4)(C2)C3)CC1)c1ccc(F)cc1 [Example 27, 4-(difluoromethyl)-N-(3-(1-(4-fluorobenzamido)cyclopropyl)bicyclo[1.1.1]pentan-1-yl)picolinamide] | 104
CC(C(=O)Nc1ccc(F)cc1)C12CC(NC(=O)c3cnn4ccccc34)(C1)C2 (stereo not drawn) [Example 113, N-[3-[2-(4-fluoroanilino)-1-methyl-2-oxo-ethyl]-1-bicyclo[1.1.1]pentanyl]pyrazolo[1,5-a]pyridin-1-ium-3-carboxamide] | 47.3
COc1cc(C(=O)NC23CC([C@H](C)C(=O)Nc4ccc(F)cc4)(C2)C3)ccc1F [Example 67, 4-fluoro-N-[3-[(1S)-2-(4-fluoroanilino)-1-methyl-2-oxo-ethyl]-1-bicyclo[1.1.1]pentanyl]-3-methoxy-benzamide] | 98
C[C@H](C(=O)Nc1ccc(F)cc1)C12CC(NC(=O)Nc3cccc(C(F)(F)F)c3)(C1)C2 [Example 87, (S)-N-(4-fluorophenyl)-2-(3-(3-(3-(trifluoromethyl)phenyl)ureido)bicyclo[1.1.1]pentan-1-yl)propanamide] | 90.3
O=C(NC1(C23CC(NC(=O)c4ccc(Cl)cn4)(C2)C3)CC1)c1ccc(F)cc1 [Example 25, 5-chloro-N-(3-(1-(4-fluorobenzamido)cyclopropyl)bicyclo[1.1.1]pentan-1-yl)picolinamide] | 83.2
C[C@@H](C(=O)Nc1cnc(F)c(F)c1)C12CC(NC(=O)c3ccc(Cl)c(Cl)c3)(C1)C2 [Example 88, (R)-3,4-Dichloro-N-(3-(1-((5,6-difluoropyridin-3-yl)amino)-1-oxopropan-2-yl)bicyclo[1.1.1]pentan-1-yl)benzamide] | 315
C[C@@H](C(=O)Nc1ccc(F)cc1)C12CC(NC(=O)c3ccc(F)c(Cl)c3)(C1)C2 [Example 35, 3-chloro-4-fluoro-N-[3-[(1R)-2-(4-fluoroanilino)-1-methyl-2-oxo-ethyl]-1-bicyclo[1.1.1]pentanyl]benzamide] | 122
CC(C(=O)Nc1ccc(Cl)cc1)C12CC(NC(=O)c3cccc(C#N)c3)(C1)C2 (single isomer, unassigned) [Example 13, N-(3-(1-((4-chlorophenyl)amino)-1-oxopropan-2-yl)bicyclo[1.1.1]pentan-1-yl)-3-cyanobenzamide] | 133
CC(C(=O)Nc1ccc(Cl)nc1)C12CC(NC(=O)c3cccc(Cl)c3)(C1)C2 (single isomer, unassigned) [Example 16, 3-chloro-N-(3-(1-((6-chloropyridin-3-yl)amino)-1-oxopropan-2-yl)bicyclo[1.1.1]pentan-1-yl)benzamide] | 183
Cc1ccc(C(=O)NC23CC(C(C)C(=O)Nc4ccc(F)cc4)(C2)C3)cn1 (stereo not drawn) [Example 132, N-[3-[2-(4-fluoroanilino)-1-methyl-2-oxo-ethyl]-1-bicyclo[1.1.1]pentanyl]-6-methyl-pyridin-1-ium-3-carboxamide] | 252
Cc1cc(C(=O)NC23CC(C(C)C(=O)Nc4ccc(F)cc4)(C2)C3)n(C)n1 (stereo not drawn) [Example 139, N-[3-[2-(4-fluoroanilino)-1-methyl-2-oxo-ethyl]-1-bicyclo[1.1.1]pentanyl]-2,5-dimethyl-pyrazole-3-carboxamide] | 396
CC(C(=O)Nc1ccc(Cl)cc1)C12CC(NC(=O)c3cccc(C#N)c3)(C1)C2 (single isomer, unassigned) [Example 12, N-(3-(1-((4-chlorophenyl)amino)-1-oxopropan-2-yl)bicyclo[1.1.1]pentan-1-yl)-3-cyanobenzamide] | 97.9
Cc1c(Cl)cccc1C(=O)NC12CC([C@H](C)C(=O)Nc3ccc(F)cc3)(C1)C2 [Example 53, 3-chloro-N-[3-[(1S)-2-(4-fluoroanilino)-1-methyl-2-oxo-ethyl]-1-bicyclo[1.1.1]pentanyl]-2-methyl-benzamide] | 123
C[C@@H](C(=O)Nc1ccc(F)c(F)c1)C12CC(NC(=O)c3ccc(Cl)c(Cl)c3)(C1)C2 [Example 91, (R)-3,4-dichloro-N-(3-(1-((3,4-difluorophenyl)amino)-1-oxopropan-2-yl)bicyclo[1.1.1]pentan-1-yl)benzamide] | 122
CC(C(=O)Nc1ccc(F)cc1)C12CC(NC(=O)c3cc4ccccc4cn3)(C1)C2 (stereo not drawn) [Example 144, N-[3-[2-(4-fluoroanilino)-1-methyl-2-oxo-ethyl]-1-bicyclo[1.1.1]pentanyl]isoquinolin-2-ium-3-carboxamide] | 463
Cc1noc(C(=O)NC23CC(C(C)C(=O)Nc4ccc(F)cc4)(C2)C3)n1 (stereo not drawn) [Example 114, N-[3-[2-(4-fluoroanilino)-1-methyl-2-oxo-ethyl]-1-bicyclo[1.1.1]pentanyl]-3-methyl-1,2,4-oxadiazole-5-carboxamide] | 59.6
Cc1ccc(C(=O)NC23CC([C@H](C)C(=O)Nc4ccc(F)cc4)(C2)C3)cc1Cl [Example 49, 3-chloro-N-[3-[(1S)-2-(4-fluoroanilino)-1-methyl-2-oxo-ethyl]-1-bicyclo[1.1.1]pentanyl]-4-methyl-benzamide] | 250
CC(C(=O)Nc1ccc(F)cc1)C12CC(NC(=O)c3cnc(Cl)cn3)(C1)C2 (stereo not drawn) [Example 140, 5-chloro-N-[3-[2-(4-fluoroanilino)-1-methyl-2-oxo-ethyl]-1-bicyclo[1.1.1]pentanyl]pyrazine-2-carboxamide] | 399
C[C@H](C(=O)Nc1ccc(F)cc1)C12CC(NC(=O)OCc3ccccc3)(C1)C2 [Example 78, benzyl (S)-(3-(1-((4-fluorophenyl)amino)-1-oxopropan-2-yl)bicyclo[1.1.1]pentan-1-yl)carbamate] | 21.8
Cc1nc(C(=O)NC23CC(C4(NC(=O)c5ccc(F)cc5)CC4)(C2)C3)no1 [Example 30, N-(3-(1-(4-fluorobenzamido)cyclopropyl)bicyclo[1.1.1]pentan-1-yl)-5-methyl-1,2,4-oxadiazole-3-carboxamide] | 47.7
Cc1cc(C(=O)NC23CC([C@@H](C)C(=O)Nc4ccc(F)cc4)(C2)C3)ccc1Cl [Example 45, 4-chloro-N-[3-[(1R)-2-(4-fluoroanilino)-1-methyl-2-oxo-ethyl]-1-bicyclo[1.1.l]pentanyl]-3-methyl-benzamide] | 109
